From the NIST ThermoML archive (doi:10.1016/j.tca.2014.02.019)

Assay: xn = mol fraction of the nth substance listed
Settings: 101 kPa, Liquid; for viscosity: Falling or rolling sphere viscometry; for mass density: Vibrating tube method

CCOS(=O)(=O)[O-].CC[N+]1(C)CCOCC1 [4-ethyl-4-methylmorpholinium ethyl sulfate] + O
Settings	mass density [kg/m3]	viscosity [mPa·s]
298.15 K, x1 = 0.1255	1160.26	7.655
298.15 K, x1 = 0.2214	1196.87	20.62
298.15 K, x1 = 0.3165	1215.39	46.5
298.15 K, x1 = 0.4406	1229.15	115.6
298.15 K, x1 = 0.6319	1240.92	529.2
298.15 K, x1 = 0.7239	1244.69	686.5
298.15 K, x1 = 0.807	1247.34	2262
298.15 K, x1 = 1	1252.26	–
303.15 K, x1 = 0.1255	1157.12	6.513
303.15 K, x1 = 0.2214	1193.61	16.92
303.15 K, x1 = 0.3165	1212.17	36.79
303.15 K, x1 = 0.4406	1226.03	93.81
303.15 K, x1 = 0.6319	1237.71	400.9
303.15 K, x1 = 0.7239	1241.43	533.1
303.15 K, x1 = 0.807	1244.19	1630
303.15 K, x1 = 1	1249.05	–
308.15 K, x1 = 0.1255	1153.95	5.589
308.15 K, x1 = 0.2214	1190.35	14.11
308.15 K, x1 = 0.3165	1208.94	29.62
308.15 K, x1 = 0.4406	1222.87	72.42
308.15 K, x1 = 0.6319	1234.48	309.1
308.15 K, x1 = 0.7239	1238.23	408.3
308.15 K, x1 = 0.807	1241	1088
308.15 K, x1 = 1	1245.86	–
313.15 K, x1 = 0.1255	1150.75	4.817
313.15 K, x1 = 0.2214	1187.08	11.93
313.15 K, x1 = 0.3165	1205.7	24.24
313.15 K, x1 = 0.4406	1219.69	57.41
313.15 K, x1 = 0.6319	1231.24	226.8
313.15 K, x1 = 0.7239	1235.04	308.8
313.15 K, x1 = 0.807	1237.81	746.9
313.15 K, x1 = 1	1242.67	2426
318.15 K, x1 = 0.1255	1147.52	4.176
318.15 K, x1 = 0.2214	1183.79	10.2
318.15 K, x1 = 0.3165	1202.45	20.16
318.15 K, x1 = 0.4406	1216.5	46.03
318.15 K, x1 = 0.6319	1228.05	170.3
318.15 K, x1 = 0.7239	1231.83	240
318.15 K, x1 = 0.807	1234.63	526.7
318.15 K, x1 = 1	1239.51	1677
323.15 K, x1 = 0.1255	1144.26	3.673
323.15 K, x1 = 0.2214	1180.48	8.814
323.15 K, x1 = 0.3165	1199.19	16.96
323.15 K, x1 = 0.4406	1213.31	37.3
323.15 K, x1 = 0.6319	1224.95	130.6
323.15 K, x1 = 0.7239	1228.72	180.6
323.15 K, x1 = 0.807	1231.45	379.7
323.15 K, x1 = 1	1236.35	1129
328.15 K, x1 = 0.1255	1140.96	2.845
328.15 K, x1 = 0.2214	1177.17	7.649
328.15 K, x1 = 0.3165	1195.92	14.47
328.15 K, x1 = 0.4406	1210.11	30.77
328.15 K, x1 = 0.6319	1221.84	101.7
328.15 K, x1 = 0.7239	1225.53	138.4
328.15 K, x1 = 0.807	1228.26	280.6
328.15 K, x1 = 1	1233.2	779.3
333.15 K, x1 = 0.1255	1137.63	2.896
333.15 K, x1 = 0.2214	1173.83	6.732
333.15 K, x1 = 0.3165	1192.63	12.44
333.15 K, x1 = 0.4406	1206.91	25.72
333.15 K, x1 = 0.6319	1218.72	80.93
333.15 K, x1 = 0.7239	1222.36	108.1
333.15 K, x1 = 0.807	1225.07	211.6
333.15 K, x1 = 1	1230.06	552.3
338.15 K, x1 = 0.1255	1134.26	2.626
338.15 K, x1 = 0.2214	1170.4	5.925
338.15 K, x1 = 0.3165	1189.38	10.79
338.15 K, x1 = 0.4406	1203.71	21.68
338.15 K, x1 = 0.6319	1215.6	65
338.15 K, x1 = 0.7239	1219.28	85.65
338.15 K, x1 = 0.807	1221.94	162.7
338.15 K, x1 = 1	1226.93	400.8
343.15 K, x1 = 0.1255	1130.86	2.124
343.15 K, x1 = 0.2214	1167.12	5.3
343.15 K, x1 = 0.3165	1186.1	9.457
343.15 K, x1 = 0.4406	1200.5	18.46
343.15 K, x1 = 0.6319	1212.48	53
343.15 K, x1 = 0.7239	1216.18	68.72
343.15 K, x1 = 0.807	1218.8	126.8
343.15 K, x1 = 1	1223.81	297.3
